{
  "source": "paper PMC12624316",
  "about": "“Studies of α′,β′‐Epoxyketone Synthesis by Small‐Molecule Flavins and Flavoenzymes” (Angewandte Chemie (International Ed. in English), 2025)",
  "target": "T1, EpxF (Goodfellowiella coeruleoviolacea, UniProt V5RNC8)",
  "T1 construct": "expressed in Escherichia coli; homodimer; residues 253-264 and 336-346 not defined in the density",
  "T1 sequence (V5RNC8 2-563)": "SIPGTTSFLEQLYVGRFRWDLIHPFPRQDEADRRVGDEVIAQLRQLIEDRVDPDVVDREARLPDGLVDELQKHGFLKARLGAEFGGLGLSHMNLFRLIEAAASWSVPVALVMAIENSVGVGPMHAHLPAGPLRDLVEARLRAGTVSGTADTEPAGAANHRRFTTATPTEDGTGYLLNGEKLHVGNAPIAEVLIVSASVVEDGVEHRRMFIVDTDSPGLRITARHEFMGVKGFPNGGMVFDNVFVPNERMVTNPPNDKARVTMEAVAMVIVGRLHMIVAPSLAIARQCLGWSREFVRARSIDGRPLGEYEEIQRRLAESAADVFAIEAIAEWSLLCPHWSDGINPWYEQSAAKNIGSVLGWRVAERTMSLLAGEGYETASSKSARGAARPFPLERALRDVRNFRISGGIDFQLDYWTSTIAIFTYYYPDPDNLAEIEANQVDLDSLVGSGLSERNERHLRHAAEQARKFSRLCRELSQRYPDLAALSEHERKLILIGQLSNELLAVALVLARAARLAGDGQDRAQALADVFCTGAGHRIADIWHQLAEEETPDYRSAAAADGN",
  "assay": "X-ray crystal structure, […] Å",
  "format": "binding",
  "details": "FAD bound in both subunits of the homodimer, adenine anchored in the dimer interface",
  "data": [
    {"smiles": "Cc1cc2nc3c(=O)[nH]c(=O)nc-3n(C[C@H](O)[C@H](O)[C@H](O)COP(=O)(O)OP(=O)(O)OC[C@H]3O[C@@H](n4cnc5c(N)ncnc54)[C@H](O)[C@@H]3O)c2cc1C", "note": "[FAD]", "values": [
      {"measurement": "X-ray crystal structure, 2.4 Å", "value": "electron density map depicts FAD bound at two distinct catalytic centers"}
    ]}
  ]
}
